Some test systems named below: OVCAR-5; PC-3; MDA-MB-231; HCT-15; UACC-257; SN12C; IGROV-1; SNB-19; BT-549; MDA-N; T47D; RXF 393; 786-0; MDA-MB-435; OVCAR-8.
Assay in all cases: NCI tumour cell line growth inhibition, 48 h

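Five compound concentrations were applied to cells in 96-well plates for 48 hours; endpoints were derived by simple linear interpolation of the resulting dose-response curve. GI50 marks 50% less growth.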 Calls of active or inactive are those of the source. Rule as the data show it: active = GI50 up to about 1.1 µM and inactive = higher.

The values that follow come from ChEMBL document CHEMBL1201862, “PubChem BioAssay data set” (2004).

As to `Cc1cn(C2CC(O)C(Cn3cc(Cn4ncc(=O)[nH]c4=O)nn3)O2)c(=O)[nH]c1=O` (stereo not given), the GI50 with OVCAR-5 was > 100 µM (inactive); in the experiment with PC-3, > 100 µM (inactive); in the experiment on MDA-MB-231 it was > 100 µM (inactive); in the experiment on HCT-15, > 100 µM; in the experiment on UACC-257, > 100 µM (inactive); with SN12C it was > 100 µM (inactive). The GI50 in the experiment on IGROV-1, with SNB-19, in the experiment on BT-549, with MDA-N, with T47D and with RXF 393 was > 100 µM (inactive) throughout. Besides, the GI50 with 786-0, in the experiment on MDA-MB-435 and in the experiment on OVCAR-8 was > 100 µM (inactive) throughout.

With `N#CC1C(=O)N(c2ccccc2)NC12OC(=O)c1ccncc12` (stereo not given), the GI50 is > 20 µM (inactive) with OVCAR-5; > 20 µM (inactive) in the experiment on PC-3; > 20 µM (inactive) in the experiment on MDA-MB-231; > 20 µM with HCT-15; > 20 µM (inactive) in the experiment on UACC-257; > 20 µM (inactive) in the experiment with SN12C. In addition, the GI50 in the experiment on IGROV-1, in the experiment on SNB-19, in the experiment on BT-549, in the experiment on MDA-N, with T47D and with RXF 393 was > 20 µM (inactive) throughout. Further, the GI50 in the experiment on 786-0, with MDA-MB-435 and in the experiment with OVCAR-8 was > 20 µM (inactive) throughout.

As to `O=C(NCc1ccccc1)c1cc2ccccc2o/c1=N\c1ccccc1F`, the GI50 with OVCAR-5 is 43.4 µM (inactive); with PC-3 it was 33.5 µM (inactive); with MDA-MB-231, 17.6 µM (inactive); with HCT-15 it was 51.2 µM; in the experiment with UACC-257, 34.4 µM (inactive); in the experiment on SN12C it was 28.9 µM (inactive). Moreover, the GI50 in the experiment on IGROV-1 was 24 µM (inactive); with SNB-19, 25.6 µM (inactive); in the experiment on BT-549 it was > 100 µM (inactive); in the experiment with MDA-N it was 34.8 µM (inactive); with T47D, 16.6 µM (inactive); in the experiment on RXF 393, 21.5 µM (inactive). Moreover, the GI50 in the experiment with 786-0 is 10.8 µM (inactive); in the experiment on MDA-MB-435, 26.3 µM (inactive); in the experiment with OVCAR-8 it was 14.3 µM (inactive).

For the molecule `Cc1csc2nc3c(cnn3C)c(=S)n12`, the GI50 in the experiment with OVCAR-5 was > 100 µM (inactive); with PC-3, > 100 µM (inactive); in the experiment with MDA-MB-231, > 10 µM (inactive); in the experiment with HCT-15, 71.4 µM; in the experiment on UACC-257 it was > 100 µM (inactive); in the experiment on SN12C, 24.2 µM (inactive). Besides, the GI50 in the experiment with IGROV-1 was > 100 µM (inactive); in the experiment on SNB-19, > 100 µM (inactive); with BT-549, 39.5 µM (inactive); in the experiment with MDA-N, > 100 µM (inactive); in the experiment with T47D, > 10 µM (inactive); in the experiment on RXF 393, 35.1 µM (inactive). For the same molecule, the GI50 with 786-0, in the experiment with MDA-MB-435 and in the experiment with OVCAR-8 was > 100 µM (inactive) throughout.

As to `O=C1/C(=C/c2ccc([N+](=O)[O-])cc2)CNC/C1=C\c1ccc([N+](=O)[O-])cc1`, the GI50 was 22.8 µM (inactive) in the experiment with OVCAR-5; 6.7 µM (inactive) in the experiment with PC-3; 2.69 µM (inactive) with MDA-MB-231; 1.13 µM in the experiment with HCT-15; 45.5 µM (inactive) in the experiment on UACC-257; 5.41 µM (inactive) with SN12C. Moreover, the GI50 with IGROV-1 was 1.84 µM (inactive); in the experiment with SNB-19, 2.27 µM (inactive); with BT-549 it was 2.69 µM (inactive); with MDA-N it was 6.27 µM (inactive); in the experiment with T47D, 18.7 µM (inactive); in the experiment with RXF 393, 12.2 µM (inactive). For the same molecule, the GI50 is 1.13 µM (inactive) in the experiment with 786-0, 10.4 µM (inactive) in the experiment on MDA-MB-435 and 3.13 µM (inactive) in the experiment on OVCAR-8.
